Test in all cases: NCI anticancer screen, dose series, 48 h
Test [1] relates to T-47D breast.
Test [2] deals with SNB-78 CNS.
The test system of test [3] is LXFL 529 NSCLC.
In test [4] the test system is M19-MEL melanoma.
In test [5] the test system is DMS 114 small cell lung.
Test [6] concerns DLD-1 colon.
Test [7] concerns HOP-18 NSCLC.
In test [8] the test system is MDA-N.
Test [9] deals with RXF-631 renal.

Each structure is given as a SMILES string. Several values for one entry are separate records, joined by “and”; a condition that tells them apart may be missing. Identical values can stand only once.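 Each compound was tested at five concentrations against cells in 96-well plates for 48 hours. Here, GI50 denotes the concentration required for 50% inhibition of growth. TGI is the concentration that stops growth completely.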

With `CCOC(=O)c1sc(NC(=O)COc2ccc(/C=C3\CCc4cc(OC)ccc4C3=O)cc2)nc1C`, in test [1], the GI50 is 9.13 µM and the TGI worked out at 30.7 µM.
With `Cc1nc(Nc2ccc(Cl)cc2)sc1C(=O)Nc1cccc2c(=O)[nH][nH]c(=O)c12`, the TGI in [2] was above 100 µM; in test [3] it was 86.6 µM; in test [4], 84.4 µM; in test [5], 61.9 µM; in [6], 86.4 µM.
With `COc1cc(N)c(Cl)cc1C(=O)N[C@@H]1CCN(CCCOc2ccc(F)cc2)C[C@@H]1OC`, in test [1], the GI50 is 27.3 µM and the TGI is above 100 µM.
Regarding `O=C(O)C1CC2C=CCC(C2)C1` (centres undefined), the TGI in [2], in test [7], in [3], in test [4], in [5] and in [6] was above 100 µM in each case.
`CCNC(=O)COc1ccc(Cl)c(C)c1`: the TGI in test [2], in [7], in test [3], in [4], in test [5] and in test [6] was above 100 µM each time.
Regarding `CN(C)CCN=c1nc2c(c(N)n1-c1ccccc1)c(=S)n(-c1ccccc1)c(=S)n2-c1ccccc1`, in test [1], the GI50 was 1.88 µM and the TGI was determined as 4.34 µM.
In the case of `COc1ccc2c(CN3CCCC[C@H]3O)cc3cc4c(cc3c2c1)OCO4`, in [1], the GI50 is 0.393 µM and the TGI came to 5.46 µM.
Regarding `CC(C)(O)c1cc(Nc2cc(Oc3cn(C4CC4)nc3C3CCOCC3)ccn2)ccn1`, in test [1], the GI50 was 23.6 µM and the TGI is above 100 µM.
Consider `CN(Cc1cnc2nc(N)nc(N)c2n1)c1c(Cl)cc(C(=O)NC(CCC(=O)O)C(=O)O)cc1Cl` (centres undefined), for which the TGI in test [1] was above 100 µM.
For the compound `C[C@]12CCC3c4ccc(O)cc4CCC3C1CC[C@@H]2NC(=O)/C=C/c1ccc(O)c(O)c1` (some centres undefined), in [1], the GI50 was 9.57 µM and the TGI was above 100 µM.
In the case of `CCS(=O)(=O)c1cccc(-c2cc(C(=O)NC3CCN(C)CC3)c(C)c3[nH]c4ncc(C)cc4c23)c1`, in [1], the GI50 is 0.277 µM and 0.204 µM; the TGI was 4.12 µM and 3.16 µM.
As to `CSCc1ncc(-c2ccc(C(F)(F)F)cc2)c(NC2CCCCCC2)n1`, in test [1], the GI50 was above 10 µM and the TGI was above 10 µM.
Turning to `CSC(=S)NCc1cn(C)c2ccccc12`, in [1], the GI50 was 29.5 µM and the TGI was above 100 µM.
For the compound `C=C(c1ccccc1)c1cc2c(=O)[nH]ccc2n1C`, the TGI in test [2] is above 100 µM; in test [3] it was above 100 µM; in [4], above 100 µM; in [5], 50.1 µM; in test [6] it was above 100 µM.
As for `Cc1cc(C)nc(NC(=O)COc2ccc(Cl)cc2)c1`, the TGI in test [8] and in test [1] was above 100 µM in each case.
Take `COc1cccc(C=NC23CC4CC(CC(C4)C2)C3)c1`: the TGI in [2] and in test [4] was above 100 µM each time.
For the compound `COc1ccc(N=c2nc3sc4cc(Cl)ccc4n3c(N)c2C#N)cc1`, in test [1], the GI50 was 39.1 µM and the TGI was above 100 µM.
The like results for `CC(C)(C)OC(=O)NCCCCCCCCCCCCn1c2c(c3ccccc3c1=O)C(=O)c1ccccc1-2` were, in that order, above 100 µM and above 100 µM.
With `Nc1ccccc1SC(/C=C/NNC1=NC(c2ccccc2)C(c2ccccc2)=NN1)c1ccccc1` (centres undefined), the TGI in test [2] was 44.3 µM; in [4], 25 µM; in [5], 30.1 µM; in test [6], 31.8 µM.
For the compound `Cc1cc(O)c2c(c1)OC1(C)CCC3C(C)(C)CCCC34COC2C14` (centres undefined), the TGI in [3] is 28.2 µM; in test [5], 27.1 µM; in [6] it was 36.8 µM.
As for `Cn1cc(-c2csc(-c3ccc(Cl)cc3)n2)c2cccnc21`, in test [1], the GI50 is 5.17 µM and the TGI is 36.4 µM.
In the case of `CCOC(=O)NN1C(=O)C(=P(c2ccccc2)(c2ccccc2)c2ccccc2)C(C(=O)OC)=C1C`, the TGI in test [2], in test [7], in test [3], in [4], in test [5] and in [6] was above 100 µM each time.
As for `COc1ccc2c(c1)[n+](=O)c(/C=C/C(=O)c1cc(OC)c(OC)c(OC)c1)c(C)n2[O-]`, in [1], the GI50 was 2.56 µM and the TGI was determined as 14.7 µM.
`BrCc1ccc2ccc3ccc(CBr)nc3c2n1`: the TGI is 4.43 µM in test [2]; 5.48 µM in test [7]; 12.7 µM in test [8]; 3.19 µM in test [3]; 14.1 µM in [4]; 15.4 µM in test [5].
Take `CCN(CC)c1ccc(/C=N/N=C(N)N)cc1`: in test [1], the GI50 was 3.76 µM and the TGI turned out to be 24.5 µM.
In [1], `NC(=S)c1cccc(C2Nc3ccccc3O2)c1` (centres undefined) displayed a TGI above 100 µM.
On to `COc1c(OC2OC(C)C(O)C(O)C2O)c(OC)c2oc(-c3ccc(O)cc3)cc(=O)c2c1O` (centres undefined), for which, in test [1], the GI50 is 22.3 µM and the TGI was above 100 µM.
On the same counts, the results for `N#C/C(=C/C=C/c1cccc(Cl)c1)S(=O)c1ccccc1` (centres undefined) are 0.234 µM and 1.11 µM.
The like results for `O=C1c2ccccc2-c2c1c1ccccc1c(=O)n2CCNCCNCCNCCNCCn1c2c(c3ccccc3c1=O)C(=O)c1ccccc1-2` were, in that order, 1.99 µM and above 100 µM.
`O=C(Cc1nc2ccccc2s1)C(=O)Nc1cccc(C(F)(F)F)c1`: the TGI in test [2], in test [7], in [3], in test [4], in test [5] and in test [6] was above 100 µM throughout.
Regarding `C[C@@H]1CC2(C[C@@H](C)C3[C@@H](CC4(C)CCCC5C6=CC(O)(CC[C@]34C)OC6=CC(=O)OC5(C)C)O2)OC1=O` (some centres undefined), the TGI in test [7], in test [3], in [5] and in test [6] was above 100 µM each time.
In the case of `Fc1ccc(-c2ncn(C3CCNCC3)c2-c2ccnc(Oc3ccc(Cl)cc3)n2)cc1`, in [1], the GI50 was 2.74 µM and the TGI was found to be 6.71 µM.
With `CN(CCOc1ccc(NS(C)(=O)=O)cc1)CCc1ccc(NS(C)(=O)=O)cc1`, in test [1], the GI50 is above 100 µM and the TGI is above 100 µM.
Regarding `N.N.N.N.O=S([O-])[O-].[Co+3].[N-]=[N+]=[N-]`, the GI50 in test [2], in test [3] and in test [6] was above 100 µM in each case. Further, the TGI in test [2], in test [3] and in test [6] was above 100 µM throughout.
Consider `CC(NC1CCCC[C@@H]1O)c1ccccc1` (some centres undefined), for which the TGI in test [2], in test [7], in [3], in test [4] and in [6] was above 100 µM each time.
As for `COC(=O)CCC(NC(=S)N/N=C(\C)c1cccs1)C(=O)OC` (centres undefined), the TGI in [2], in test [7], in test [3], in test [4], in test [5] and in test [6] was above 100 µM throughout.
As for `Cc1nc(C(=O)OCc2ccccc2)cc(OCc2ccccc2)c1C`, in [1], the GI50 was 18.8 µM and the TGI was above 100 µM.
In the case of `O=C(C#Cc1ccccc1)NC/C=C/c1ccccc1`, the TGI in [2] was 84.1 µM; in test [7] it was above 100 µM; in test [3], above 100 µM; in test [4] it was above 100 µM; in [5] it was above 100 µM; in [6] it was above 100 µM.
As to `O=C1C(=O)N(c2cc(Cl)ccc2Cl)C(=O)C(=O)C1c1nc2ccccc2s1`, the TGI in test [2], in test [3], in [4], in test [5] and in [6] was above 100 µM in each case.
For the compound `CCOC(=O)C(Cc1cc(OC)c(CC(C(=O)OCC)C(=O)OCC)cc1OC)C(=O)OCC`, the TGI in [2], in [8], in test [1], in test [3], in [4] and in test [5] was above 100 µM in each case. The compound also had a TGI in test [6] above 100 µM.
Take `COc1cc(C=NCC(=O)CSC(c2ccccc2)c2ccccc2)ccc1O`: in test [1], the GI50 is 2.86 µM and the TGI turned out to be 12.3 µM.
On to `O=C1N=C2N=C(c3ccc(Cl)cc3)N(c3ccc(Cl)cc3)N2Sc2ccccc21`, for which the TGI in test [2], in test [7], in test [3], in test [4], in [5] and in test [6] was above 100 µM in each case.
For the compound `O=C1C=C(NCCc2ccccc2)c2ccccc2C1=O`, the TGI was 42.8 µM in test [2]; 3 µM in test [7]; 3.39 µM in test [8]; 40.1 µM in test [1]; 19.1 µM in test [3]; 0.927 µM in [4]. In addition, the values for the TGI in test [5] and in test [6] were 5.81 µM and 21.9 µM, respectively.
As to `Cc1cc(C)c(-c2c(O)c(Br)c(-c3c(C)cc(C)c(Br)c3C)c(O)c2Br)c(C)c1Br`, in test [1], the GI50 is 1.7 µM and the TGI came out at 4.84 µM.
On the same counts, the results for `COC(=O)c1c(C(=O)O)c(-c2ccccc2)c(-c2ccccc2)c(-c2ccccc2)c1-c1ccccc1` are 75.7 µM and above 100 µM.
`OC(Cc1cccc2ccccc12)CN1CCC(c2ccccc2)CC1` (centres undefined): the TGI in test [8] is 27.3 µM; in test [1], 40.6 µM.
Consider `COc1ccc(C(=O)Cn2c(C(=O)c3ccc(Cl)cc3)nc(-c3ccccc3)c2-c2ccccc2)cc1`, for which, in test [1], the GI50 is above 100 µM and the TGI is above 100 µM.
As for `C/C(=C\c1ccccc1)C(=O)c1c(C)cc(C)cc1C`, the TGI in test [7], in test [3], in test [4], in test [5] and in test [6] was above 100 µM in each case.
For `CCCC(=O)Nc1cc(/C=C/C(=O)N2C[C@@H]3C[C@]34C2=CC(=O)c2[nH]cc(C)c24)n(C)c1`, the values for the TGI in test [8] and in test [1] were 0.879 µM and 1.08 µM, respectively.
As for `CCCCS(=O)(=O)c1cc(Nc2ccc(O)c3c2C(=O)c2ccccc2C3=O)ccc1C`, in test [1], the GI50 was above 100 µM and the TGI was above 100 µM.
Take `O=C(CC1(O)CCCCC1)OC1CCCC1`: the TGI in [8] and in test [1] was above 100 µM throughout.
Consider `O=C(O)CCN1C(=S)CSC1=S`, for which the TGI in test [8] and in test [1] was above 100 µM in each case.
Consider `CC(=O)/C(=N\N=C(N)N)c1ccccc1`, for which the TGI in test [8] and in [1] was above 100 µM in each case.
Take `COc1ccc(/C=C(\C#N)c2cc(OC)c(OC)c(OC)c2)cc1`: in test [1], the GI50 is 0.672 µM and the TGI came to 61.8 µM.
Regarding `C=C(CN1CCN(c2ccccn2)CC1)c1ccc(C(=O)Nc2ccccc2N)cc1`, in [1], the GI50 is 1.23 µM and the TGI came to 20.9 µM.
`O=C(NCCCN1CCN(CCCNC(=O)Nc2cc(Cl)ccc2Cl)CC1)Nc1cc(Cl)ccc1Cl`: the TGI in test [2], in test [7], in test [3], in test [5] and in test [6] was above 100 µM each time.
For `COc1ccc(OCC(=O)O)c2c1CCC(C)C2=O` (centres undefined), the TGI in test [2], in test [9], in test [7], in test [4], in test [5] and in test [6] was above 100 µM each time.
For `COc1ccc(C(=O)c2ccccc2)c(O)c1`, in test [1], the GI50 is 10.1 µM and the TGI is above 100 µM.
For the compound `CN1C2C=CC(=O)C1C(C#N)C2` (centres undefined), the TGI was above 100 µM in [8]; 75.9 µM and > 100 µM in test [1].
Turning to `NCCOCCOCC(=O)O`, the TGI in test [2], in test [3], in [4] and in test [5] was above 100 µM in each case.

For the origin of these results see PubChem BioAssay (NCI).
